Values of other authors as cited in patent US20110201579A1, “Method of Improving the Overall Health of a Patient by Application of Pregnenolone” (priority 2010, published 2011).

What was measured:
[1] = individuals with rheumatoid arthritis
[2] = rodents
[3] = some people

SMILES	improvement of rheumatoid arthritis [1]	memory [2]	energy, vision, memory, clarity of thinking, wellbeing, sexual enjoyment or libido [3]
C[C@]12CCC(=O)C=C1CC[C@@H]1[C@@H]2[C@@H](O)C[C@@]2(C)[C@H]1CC[C@]2(O)C(=O)CO [cortisol]	outstanding short-term improvements		
CC(=O)[C@H]1CC[C@H]2[C@@H]3CC=C4C[C@@H](O)CC[C@]4(C)[C@H]3CC[C@]12C [pregnenolone, Pregnenolone]		one of the most effective and powerful memory boosters	improves energy, vision, memory, clarity of thinking, wellbeing, and often sexual enjoyment or libido
